Patent US20210101928A1 (Sage Therapeutics, Inc., priority 2017, published 2021)

The compounds below were run against GABAA receptor ([35S]-TBPS binding, rat brain cortical membranes) (assay: Steroid inhibition of [35S]-TBPS binding). Conditions: Table I-1, 3 nM [35S]-TBPS, in the presence of 5 mM GABA, read-out: TBPS binding IC50.
Description: [^35S]-t-Butylbicyclophosphorothionate (TBPS) binding assays using rat brain cortical membranes in the presence of 5 mM GABA has been described (Gee et al, J. Pharmacol. Exp. Ther. 1987, 241, 346-353; Hawkinson et al, Mol. Pharmacol. 1994, 46, 977-985; Lewin, A. H et al., Mol. Pharmacol. 1989, 35, 189-194).
Briefly, cortices are rapidly removed following decapitation of carbon dioxide-anesthetized Sprague-Dawley rats (200-250 g). The cortices are homogenized in 10 volumes of ice-cold 0.32 M sucrose using a glass/teflon homogenizer and centrifuged at 1500×g for 10 min at 4° C. The resultant supernatants are centrifuged at 10,000×g for 20 min at 4° C. to obtain the P2 pellets. The P2 pellets are resuspended in 200 mM NaCl/50 mM Na—K phosphate pH 7.4 buffer and centrifuged at 10,000×g for 10 min at 4° C. This washing procedure is repeated twice and the pellets are resuspended in 10 volumes of buffer. Aliquots ([…]) of the membrane suspensions are incubated with 3 nM [^35S]-TBPS and […] aliquots of test drug dissolved in dimethyl sulfoxide (DMSO) (final 0.5%) in the presence of 5 mM GABA. The incubation is brought to a final volume of 1.0 mL with buffer. Nonspecific binding is determined in the presence of […] and ranged from 15 to 25%. Following a 90 min incubation at room temp, the assays are terminated by filtration through glass fiber filters (Schleicher and Schuell No. 32) using a cell harvester (Brandel) and rinsed three times with ice-cold buffer. Filter bound radioactivity is measured by liquid scintillation spectrometry. Non-linear curve fitting of the overall data for each drug averaged for each concentration is done using Prism (GraphPad). […] The concentration of test compound producing 50% inhibition (IC50) of specific binding and the maximal extent of inhibition (Imax) are determined for the individual experiments with the same model used for the overall data and then the means±SEM.s of the individual experiments are calculated.
Various compounds are or can be screened to determine their potential as modulators of [^35S]-TBPS binding in vitro. These assays are or can be performed in accordance with the above.

`C[C@@]1(O)CC[C@]2(C)[C@H]3CC[C@]4(C)[C@@H](C(=O)CNc5ccccc5)CC[C@H]4[C@@H]3CC[C@]2(C)C1` [I-A3, 1-((3R,5R,8S,9S,10R,13S,14S,17S)-3-hydroxy-3,5,10,13-tetramethylhexadecahydro-1H-cyclopenta [a]phenanthren-17-yl)-2-(phenylamino)ethan-1-one] and `Cc1nnn(CC(=O)[C@H]2CC[C@H]3[C@@H]4CC[C@]5(C)C[C@](C)(O)CC[C@]5(C)[C@H]4CC[C@]23C)n1` [I-A9, 1-((3R,5R,8S,9S,10R,13S,14S,17S)-3-hydroxy-3,5,10,13-tetramethylhexadecahydro-1H-cyclopenta[a]phenanthren-17-yl)-2-(5-methyl-2H-tetrazol-2-yl)ethan-1-one] fall in the same range of IC50: 100 to 1000 nM for the first, 100 to 1000 nM for the second.

Same assay, conditions: Table II-2, 3 nM [35S]-TBPS, in the presence of 5 mM GABA, read-out: TBPS IC50

`CC[C@]12CC[C@@](C)(O)C[C@@H]1CC[C@H]1[C@@H]3CC[C@H](C(=O)CO)[C@@]3(C)CC[C@@H]12` [II-A11, 1-((3R,5S,8S,9S,10S,13S,14S,17S)-10-ethyl-3-hydroxy-3,13-dimethylhexadecahydro-1H-cyclopenta[a]phenanthren-17-yl)-2-hydroxyethan-1-one] and `CC[C@]12CC[C@@](C)(O)C[C@@H]1CC[C@H]1[C@@H]3CC[C@H](C(C)=O)[C@@]3(C)CC[C@@H]12` [II-A5, 1-((3R,5S,8S,9S,10S,13S,14S,17S)-10-ethyl-3-hydroxy-3,13-dimethylhexadecahydro-1H-cyclopenta [a]phenanthren-17-yl)ethan-1-one] fall in the same range of IC50: 10 to 100 nM for the first, 10 to 100 nM for the second.

Compared with `CO[C@H](C)[C@]12CC[C@@](C)(O)C[C@H]1CC[C@H]1[C@@H]3CC[C@H](C(=O)Cn4nnnc4C)[C@@]3(C)CC[C@@H]12` [II-E13, 1-((3R,5R,8S,9S,10R,13S,14S,17S)-3-hydroxy-10-((R)-1-methoxyethyl)-3,13-dimethylhexadecahydro-1H-cyclopenta[a]phenanthren-17-yl)-2-(5-methyl-1H-tetrazol-1-yl)ethan-1-one], `CC[C@]12CC[C@@](C)(O)C[C@H]1CC[C@H]1[C@@H]3CC[C@H](C(=O)Cn4nnnc4C)[C@@]3(C)CC[C@@H]12` [II-14a, 1-((3R,5R,8S,9S,10S,13S,14S,17S)-10-ethyl-3-hydroxy-3,13-dimethylhexadecahydro-1H-cyclopenta[a]phenanthren-17-yl)-2-(5-methyl-1H-tetrazol-1-yl)ethan-1-one] is lower in IC50: 100 to 1000 nM for the first, less than 10 nM for the second. The second is the more potent here.

`CCOC[C@@]1(O)CC[C@@]2(CC)[C@H](CC[C@H]3[C@@H]4CC[C@H](C(=O)N5CCCC[C@H]5c5ccc(F)cc5)[C@@]4(C)CC[C@@H]32)C1` [II-51, ((3R,5R,8S,9S,10S,13S,14S,17S)-3-(ethoxymethyl)-10-ethyl-3-hydroxy-13-methylhexadecahydro-1H-cyclopenta[a]phenanthren-17-yl)((S)-2-(4-fluorophenyl)piperidine-1-yl)methanone] and `CCOC[C@@]1(O)CC[C@@]2(CC)[C@H](CC[C@H]3[C@@H]4CC[C@H](C(=O)N5CCCC[C@H]5C)[C@@]4(C)CC[C@@H]32)C1` [II-45, ((3R,5R,8S,9S,10S,13S,14S,17S)-3-(ethoxymethyl)-10-ethyl-3-hydroxy-13-methylhexadecahydro-1H-cyclopenta[a]phenanthren-17-yl)((R)-2-methylpiperidin-1-yl)methanone] fall in the same range of IC50: 10 to 100 nM for the first, 10 to 100 nM for the second.

`CC[C@]12CC[C@@](C)(O)C[C@H]1CC[C@H]1[C@@H]3CC[C@H](C(=O)Cn4nnc5cc(OC)ccc54)[C@@]3(C)CC[C@@H]12` (single isomer, unassigned) [II-M2a] and `CC[C@]12CC[C@@](C)(O)C[C@H]1CC[C@H]1[C@@H]3CC[C@H](C(=O)Cn4nnc(C)n4)[C@@]3(C)CC[C@@H]12` [II-14, 1-((3R,5R,8S,9S,10S,13S,14S,17S)-10-ethyl-3-hydroxy-3,13-dimethylhexadecahydro-1H-cyclopenta[a]henanthren-17-yl)-2-(5-methyl-2H-tetrazol-2-yl)ethan-1-one] cannot be ordered by IC50: less than 10 nM for the first, less than 10 nM for the second.

First: CCOC[C@@]1(O)CC[C@@]2(CC)[C@@H](CC[C@H]3[C@@H]4CC[C@H](C(C)=O)[C@@]4(C)CC[C@@H]32)C1 [II-D9]
Second: CC[C@]12CC[C@](O)(COC)C[C@@H]1CC[C@H]1[C@@H]3CC[C@H](C(=O)Cn4ccc(C#N)n4)[C@@]3(C)CC[C@@H]12 [II-E8, 1-(2-((3R,5S,8S,9S,10S,13S,14S,17S)-10-ethyl-3-hydroxy-3-(methoxymethyl)-13-methylhexadecahydro-1H-cyclopenta[a]phenanthren-17-yl)-2-oxoethyl)-1H-pyrazole-3-carbonitrile]
The IC50 of the first is higher: 10 to 100 nM for the first, less than 10 nM for the second.

Compared with `CC[C@]12CC[C@@](C)(O)C[C@H]1CC[C@H]1[C@@H]3CC[C@H](C(=O)Cn4ccnn4)[C@@]3(C)CC[C@@H]12` [II-13a, 1-((3R,5R,8S,9S,10S,13S,14S,17S)-10-ethyl-3-hydroxy-3,13-dimethylhexadecahydro-1H-cyclopenta[a]phenanthren-17-yl)-2-(1H-1,2,3-triazol-1-yl)ethan-1-one], `CC[C@]12CC[C@@](C)(O)C[C@@H]1CC[C@H]1[C@@H]3CC[C@H](C(=O)Cn4cccn4)[C@@]3(C)CC[C@@H]12` [II-A7, 1-((3R,5S,8S,9S,10S,13S,14S,17S)-10-ethyl-3-hydroxy-3,13-dimethylhexadecahydro-1H-cyclopenta [a]phenanthren-17-yl)-2-(1H-pyrazol-1-yl)ethan-1-one] is higher in IC50: less than 10 nM for the first, 10 to 100 nM for the second. The first is the more potent here.

In the case of `CC[C@]12CC[C@@](C)(O)C[C@H]1CC[C@H]1[C@@H]3CC[C@H](C(=O)Cn4nccn4)[C@@]3(C)CC[C@@H]12` [II-13, 1-((3R,5R,8S,9S,10S,13S,14S,17S)-10-ethyl-3-hydroxy-3,13-dimethylhexadecahydro-1H-cyclopenta[a]phenanthren-17-yl)-2-(2H-1,2,3-triazol-2-yl)ethan-1-one], the IC50 is reported as less than 10 nM.

Same assay, conditions: Table III-1 (biological data), 3 nM [35S]-TBPS, in the presence of 5 mM GABA, read-out: TBPS IC50

First: COC[C@]12CC[C@H]3[C@@H](CC[C@@H]4C[C@](C)(O)CC[C@@H]43)[C@@H]1CC[C@@H]2C(=O)Cn1cc(C#N)cn1 [III-C13, 1-(2-((3R,5R,8R,9R,10S,13R,14S,17S)-3-hydroxy-13-(methoxymethyl)-3-methylhexadecahydro-1H-cyclopenta[a]phenanthren-17-yl)-2-oxoethyl)-1H-pyrazole-4-carbonitrile]
Second: COC[C@]12CC[C@H]3[C@@H](CC[C@@H]4C[C@](C)(O)CC[C@@H]43)[C@@H]1CC[C@@H]2C(C)=O [III-C11, 1-((3R,5R,8R,9R,10S,13R,14S,17S)-3-hydroxy-13-(methoxymethyl)-3-methylhexadecahydro-1H-cyclopenta[a]phenanthren-17-yl)ethan-1-one]
The IC50 of the first is lower: less than 10 nM for the first, 10 to 100 nM for the second. The first is the more potent here.

`CC[C@]12CC[C@H]3[C@@H](CC[C@H]4C[C@@](O)(COC)CC[C@@H]43)[C@@H]1CC[C@@H]2C(C)=O` [III-A20, 1-((3R,5S,8R,9R,10S,13S,14S,17S)-13-ethyl-3-hydroxy-3-(methoxymethyl)hexadecahydro-1H-cyclopenta [a]phenanthren-17-yl)ethan-1-one] was tested, and the IC50 was 10 to 100 nM.
